{"source": "paper PMC5893132", "about": "“Selective inhibition of histamine-evoked Ca^2+ signals by compartmentalized cAMP in human bronchial airway smooth muscle cells” (Cell Calcium, 2018)", "key": {"[1]": {"test_system": "bradykinin-evoked Ca^2+ signals in hBASMCs", "test": "Bradykinin-evoked Ca2+ signals in populations of fluo-4-loaded hBASMCs", "assay_type": "cell-based, human", "conditions": "cells treated with PTX 100 ng·mL^−1, 24 h; HBS", "method": "Two methods were used to measure [Ca^2+]i in populations of hBASMCs. For measurements using a FlexStation III plate-reader (Molecular Devices, Sunnyvale, CA, USA), hBASMCs were seeded into 96-well plates (10^4 cells per well). After about 4 days, when the cells were confluent, the medium was replaced with SMGM-2 without serum or growth factor supplements, and the cells were used after a further 24 h. […] Cells were washed with HEPES-buffered saline (HBS: 135 mM NaCl, 5.9 mM KCl, 1.2 mM MgCl2, 1.5 mM CaCl2, 11.6 mM HEPES, 11.5 mM D-glucose, pH 7.3), and loaded with fluo-4 by incubation with fluo-4-AM (2 μM) in HBS (100 μL per well) containing pluronic F127 (0.02%, v/v) and probenecid (2.5 mM). After 1 h at 20 °C, the medium was replaced with HBS (100 μL per well) containing probenecid (2.5 mM). After a further incubation at 20 °C for 1 h, the medium was replaced with HBS (60–80 μL per well) or nominally Ca^2+-free HBS, and the cells were used immediately for experiments at 20 °C. […] Drug additions (20 μL at 4 or 5 times the final concentration) were added automatically. Fluorescence from fluo-4 (excitation 485 nm, emission 525 nm) was recorded at 1.44-s intervals using Softmax Pro 5.4 (Molecular Devices). Fluorescence was calibrated to [Ca^2+]i from: [Ca^2+]i=KDCa×(F−Fmin/Fmax−F) where, KDCa is the equilibrium dissociation constant of fluo-4 for Ca^2+ (345 nM), F is the recorded fluorescence, and Fmin and Fmax are the fluorescence values recorded after addition of triton-X-100 (0.1%, v/v) with either BAPTA (10 mM, Fmin) or CaCl2 (10 mM, Fmax). […] Fmax was determined for each well at the end of an experiment, and the average value was used for each column of 8 wells. Fmin was determined from parallel wells on each plate.\nFor measurements of [Ca^2+]i using an FDSS 7000 FLIPR (Hamamatsu), hBASMCs were seeded into 384-well plates (8000 cells per well) in 20 μL of SMGM-2 containing 5% serum. […] The exact composition of this ‘no-wash’ indicator kit is not disclosed by the manufacturer, but it contains fluo-4-AM and components that reduce background fluorescence. […]"}, "[2]": {"test_system": "intracellular cAMP in hBASMCs", "test": "Intracellular cAMP in hBASMCs by mass spectrometry", "assay_type": "cell-based, human", "method": "These methods were modified from. Confluent cultures of hBASMCs in 48-well plates were serum-deprived (6–24 h) and the medium was then replaced with HBSS (300 μL) containing HEPES (5 mM) and BSA (0.1%, w/v). Cells were stimulated at 20 °C, and reactions were terminated by aspiration of the medium and addition of acetonitrile (170 μL) containing dibutyryl cAMP (0.5 μM, to provide an internal standard). The plates were centrifuged (1500 xg, 15 min, 4 °C), supernatants (158 μL) were transferred to a 96-well, glass-coated plate (Thermo Scientific), and aqueous NH4HCO3 (pH 9.4, 93 μL) was added to each sample. After mixing and centrifugation (1500 xg, 15 min, 4 °C), samples were stored at 4 °C before analysis. Samples were analyzed by liquid chromatography tandem mass spectrometry (LC–MS/MS) using a Waters Acquity UPLC and a Sciex 5500 mass spectrometer equipped with an electrospray ionization source. ATP, ADP, AMP and cAMP were analyzed using a ZIC-pHILIC polymeric column (5-μm particle size, […]) maintained at 35 °C. Calibration standards were prepared in the lysis medium containing the internal standard, dibutyryl cAMP (0.5 μM). […] Samples were detected using multiple reaction monitoring in negative ion mode using the following parent-to-daughter mass transitions: cAMP m/z 327.9 → 133.9 (DP −100 V, CE −33 eV), AMP m/z 345.9 → 134.0 (DP −100 V, CE −50 eV), ADP m/z 426.0 → 134.0 (DP −100 V, CE −30 eV), ATP m/z 505.9 → 408.0 (DP −100 V, CE −35 eV), and internal standard dibutyryl cAMP m/z 468.1 → 175.0 (DP −100 V, CE −35 eV). Concentration-effect relationships were fitted to logistic equations for each experiment using GraphPad Prism (version 5, GraphPad Software, La Jolla, CA, USA), from which half-maximally effective drug concentrations (EC50), maximal responses, and Hill slopes were determined. For statistical analyses, maximal responses, Hill slopes and pEC50 (-logEC50) or pIC50 (-log of the half-maximal inhibitory concentration, IC50) values determined for individual experiments were pooled for statistical analysis. […]"}}, "note": "Counter-ions that a name gives are not always drawn."}
{"smiles": "CC(C)NC[C@H](O)c1ccc(O)c(O)c1", "note": "[isoproterenol, (−)-isoproterenol hydrochloride]", "values": [{"measurement": "effect on the Ca2+ signals evoked by bradykinin after pertussis toxin", "setting": "[1]", "value": "remained insensitive to isoproterenol"}, {"measurement": "EC50", "setting": "[2]; Homo sapiens, 5 min, MS analyses, n = 3, read-out: pEC50 for cAMP accumulation (converted)", "value": 132, "unit": "nM"}, {"measurement": "intracellular cAMP associated with matched inhibition of Ca2+ signals, relative to IBMX", "setting": "[2]; isoproterenol (5 min) vs IBMX (20 min), histamine 10 μM, cAMP by MS", "value": "~5.4", "unit": "fold"}]}
